# Columns and labels:
# [1] = tested on: Tetranychus urticae; assay: Tetranychus test, OP-resistant (TETRUR spray treatment), bean leaf discs; format: in vivo; settings: for efficacy in %: application rate 500 g/ha, after 6 days
# Description: Tetranychus Test, OP-Resistant (TETRUR Spray Treatment)
# After a time of 6 days, the efficacy in % is determined.
# [2] = log P by HPLC, EEC Directive 79/831 Annex V.A8, method a); format: physicochemical
# Description: (§1) ^a) Note regarding the determination of the log P values and mass detection The determination of the given log P values was carried out in accordance with EEC Directive 79/831 Annex V.A8 by HPLC (High Performance Liquid Chromatography) on a reversed-phase column (C18). Agilent 1100 LC system; 50*4.6 Zorbax Eclipse Plus C18 1.8 micron; mobile phase A: acetonitrile (0.1% formic acid); mobile phase B: water (0.09% formic acid); linear gradient from 10% acetonitrile to 95% acetonitrile in 4.25 min, then 95% acetonitrile for a further 1.25 min; oven temperature 55° C.; flow rate: 2.0 ml/min Mass detection is via an Agilend MSD system.
# as §1, with “mass detection:” for “mass detection”, “2.0 ml/min.” for “2.0 ml/min”
# [3] = tested on: Phaedon cochleariae; assay: Phaedon test (PHAECO spray treatment), Chinese cabbage leaf discs; settings: for efficacy in %: application rate 500 g/ha, after 7 days
# [4] = tested on: Spodoptera frugiperda; assay: Spodoptera frugiperda test (SPODFR spray treatment), maize leaf discs; format: in vivo; settings: application rate 500 g/ha; after 7 days
# Description: Spodoptera frugiperda Test (SPODFR Spray Treatment)
# [5] = tested on: Myzus persicae; assay: Myzus test (MYZUPE spray treatment); format: in vivo; settings: for efficacy in %: application rate 500 g/ha, after 6 days; for inhibition at 100 g/ha / inhibition at 20 g/ha: Myzus persicae, 144 h
# Description: Myzus test (Myzupe spray treatment)
# After 6 days, the efficacy in % is determined.
# Myzus Test (MYZUPE Spray Treatment)
# [6] = tested on: Ctenocephalides felis; assay: Ctenocephalides felis oral (CTECFE); format: in vivo
# Description: Ctenocephalides felis Oral (CTECFE)
# Solvent: 1 part by weight of dimethyl sulphoxide
# For the purpose of producing a suitable preparation of active compound, 10 mg of active compound are mixed with 0.5 ml of dimethyl sulphoxide. A portion of the concentrate is diluted with citrated cattle blood, and the desired concentration is prepared.
# (§2) About 20 unfed adult fleas (Ctenocephalides felis) are placed into a chamber which is closed at the top and bottom with gauze. A metal cylinder whose bottom end is closed with parafilm is placed onto the chamber. The cylinder contains the blood/active compound preparation, which can be taken up by the fleas through the parafilm membrane. After 2 days, the kill in % is determined.
# For the purpose of preparing an appropriate active compound formulation, 10 mg of active compound are mixed with 0.5 ml of dimethyl sulphoxide. A portion of the concentrate is diluted with citrated cattle blood, and the desired concentration is prepared.
# as §2, with “membrane.” for “membrane. After 2 days, the kill in % is determined.”
# [7] = tested on: Boophilus microplus; assay: Boophilus microplus test (BOOPMI injection); format: in vivo; settings: for % Activity dat: BOOPMI injection, 7 dat
# Description: Boophilus microplus Test (BOOPMI Injection)
# (§3) Solvent: dimethyl sulphoxide
# The active compound solution is injected into the abdomen (Boophilus microplus), and the animals are transferred into dishes and stored in a climate-controlled room. The activity is assessed by laying of fertile eggs.
# The active compound solution is injected into the abdomen (Boophilus microplus), and the animals are transferred into dishes and stored in a climate-controlled room.
# The activity is assessed by laying of fertile eggs. 100% means that none of the ticks has laid any fertile eggs.
# [8] = tested on: Phaedon cochleariae; assay: Phaedon cochleariae spray test (PHAECO), cabbage leaves, ppm; format: in vivo; settings: 168 h, 7 dat
# Description: Phaedon cochleariae Spray Test (PHAECO)
# Solvent: 7 parts by weight of dimethylformamide
# Emulsifier: 2 parts by weight of alkylaryl polyglycol ether
# (§4) If the addition of ammonium salts or/and penetrants is required, these are in each case added in a concentration of 1000 ppm to the solution of the preparation.
# [9] = tested on: Nilaparvata lugens; assay: Nilaparvata lugens spray test (NILALU); format: in vivo
# Description: Nilaparvata lugens Spray Test (NILALU)
# as §4
# [10] = tested on: Boophilus microplus females of the SP-resistant Parkhurst strain; assay: Boophilus microplus test (DIP); format: in vivo; settings: Rhipicephalus microplus, 168 h, BOOPMI DIP, 7 dat
# Description: Boophilus microplus Test (DIP)
# Test animals: adult engorged Boophilus microplus females of the SP-resistant Parkhurst strain
# as §3
# 10 mg of active compound are dissolved in 0.5 ml of dimethyl sulphoxide. For the purpose of preparing a suitable formulation, the active compound solution is diluted with water to the concentration desired in each case.
# This active compound preparation is pipetted into tubes. 8-10 ticks are transferred into a further tube with holes. The tube is immersed into the active compound formulation, and all ticks are completely wetted. After the liquid has rum off, the ticks are transferred to filter discs in plastic dishes and kept in a climatized room. The activity is assessed after 7 days by laying of fertile eggs. Eggs whose fertility is not outwardly visible are stored in glass tubes in a climate-controlled cabinet until the larvae hatch. An efficacy of 100% means that none of the ticks has laid any fertile eggs.
# 10 mg of active compound are dissolved in 0.5 ml of dimethyl sulphoxide. For the purpose of preparing a suitable formulation, the active compound solution is diluted with water to the concentration desired in each case (in ppm).
# This active compound preparation is pipetted into tubes. 8-10 ticks are transferred into a further tube with holes. The tube is immersed into the active compound formulation, and all ticks are completely wetted. After the liquid has run out, the ticks are transferred onto filter discs in plastic dishes and stored in a climate-controlled room.
# The activity is assessed after the desired time by laying of fertile eggs. Eggs whose fertility is not evident from the outside are kept in glass tubes in a climate-controlled cabinet until the larvae have hatched. An effect of 100% means that none of the ticks has laid any fertile eggs.
# [11] = reversed-phase C18 HPLC column; HPLC-MS method a), reversed-phase C18, acetonitrile/water with formic acid
# [12] = cell marked a): HPLC, reversed-phase C18, acetonitrile/water with formic acid, gradient 10% to 95% acetonitrile
# [13] = Tetranychus urticae, foliar, 144 h, TETRUR, 6 dat
# [14] = cell prints no method mark; Ex. 40 value equals the log P given under method a)
compound,measurement,setting,value
"Cn1nc(C2(F)CC2)c(Br)c1C(=O)Nc1ccc(Cl)c(C(=O)NC2(C#N)CC2)c1 [Example 1, 4-Bromo-N-{4-chloro-3-[(1-cyanocyclopropyl)carbamoyl]phenyl}-3-(1-fluorocyclopropyl)-1-methyl-1H-pyrazole-5-carboxamide]",efficacy in %,[1],100%
same,chromatographic logP,[2]; [11],2.5
same,efficacy in %,[3],100%
"CN(C(=O)c1c(C(F)(F)F)c(C(F)(F)F)nn1C)c1ccc(Cl)c(C(=O)NC2(C#N)CC2)c1 [Example 2, N-{4-Chloro-3-[(1-cyanocyclopropyl)carbamoyl]phenyl}-N,1-dimethyl-3,4-bis(trifluoromethyl)-1H-pyrazole-5-carboxamide]",efficacy in %,[4],100%
same,efficacy in %,[5],100%
same,efficacy in %,[1],100%
same,kill in % (effect),"[6]; 100 ppm, after 2 days",100%
same,efficacy in % (laying of fertile eggs),"[7]; 20 μg/animal, after 7 days",100%
same,chromatographic logP,[2]; [11],2.81
same,efficacy in %,[3],100%
CN(C(=O)c1c(Cl)c(C2(Cl)CC2)nn1C)c1ccc(Cl)c(C(=O)NC2(C#N)CC2)c1 [Example 3],efficacy in %,[1],100%
same,logP,[2]; [12],2.46 ^a)
same,efficacy in %,[3],100%
CCN(C(=O)c1cc(N(C)C(=O)c2c(C(F)(F)F)c(C(F)(F)C(F)(F)F)nn2C)ccc1Cl)C1(C#N)CC1 [Example 4],efficacy in %,[4],100%
same,efficacy in %,[5],100%
same,efficacy in %,[1],100%
same,logP,[2]; [12],3.77 ^a)
same,efficacy in %,[3],100%
CN(C(=O)c1c(C(F)(F)F)c(C(F)(F)C(F)(F)F)nn1C)c1ccc(Cl)c(C(=O)N(C)C2(C#N)CC2)c1 [Example 5],efficacy in %,[4],100%
same,efficacy in %,[5],90%
same,efficacy in %,[1],100%
same,logP,[2]; [12],3.59 ^a)
same,efficacy in %,[3],100%
Cn1nc(C(F)(F)C(F)(F)F)c(C(F)(F)F)c1C(=O)Nc1ccc(Br)c(C(=O)NC2(C#N)CC2)c1 [Example 14],% Activity dat,"[5]; MYZUPE, 100 g/ha, 6 dat",100 6 dat 100 6 dat %
same,inhibition at 100 g/ha,"[5]; MYZUPE, 100 g/ha, 6 dat",100%
same,inhibition at 100 g/ha,[1]; [13],100%
same,inhibition at 4 ppm,[8],100%
same,inhibition at 500 g/ha,"[9]; 96 h, 4 dat",80%
same,chromatographic logP,[2]; reversed-phase HPLC column (C18); cell prints no method mark; Ex. 40 value equals the log P given under method a),3.31
C#CCn1nc(C(F)(F)C(F)(F)F)c(C(F)(F)F)c1C(=O)Nc1ccc(Cl)c(C(=O)NC2(C#N)CC2)c1 [Example 57],logP,[2]; [14],3.58
C=CCn1nc(C(F)(F)C(F)(F)F)c(C(F)(F)F)c1C(=O)Nc1ccc(Cl)c(C(=O)NC2(C#N)CC2)c1 [Example 58],logP,[2]; [14],3.65
Cn1nc(C(F)(F)C(F)(F)F)c(C(F)(F)F)c1C(=O)Nc1cc(F)c(Br)c(C(=O)NC2(C#N)CC2)c1 [Example 59],logP,[2]; [14],3.58
CCC(=O)N(C(=O)c1c(C(F)(F)F)c(C(F)(F)C(F)(F)F)nn1C)c1ccc(Cl)c(C(=O)N(C(=O)CC)C2(C#N)CC2)c1 [Example 60],logP,[2]; [14],4.68
CCN(C(=O)c1cc(NC(=O)c2c(C(F)(F)F)c(C(F)(F)C(F)(F)F)nn2C)ccc1Cl)C1(C#N)CC1 [Example 61],logP,[2]; [14],3.86
CN(C(=O)c1cc(NC(=O)c2c(C(F)(F)F)c(C(F)(F)C(F)(F)F)nn2C)ccc1Cl)C1(C#N)CC1 [Example 62],logP,[2]; [14],3.66
CC(C)OC(=O)N(C(=O)c1c(C(F)(F)F)c(C(F)(F)C(F)(F)F)nn1C)c1ccc(Cl)c(C(=O)NC2(C#N)CC2)c1 [Example 63],logP,[2]; [14],4.19
N#CC1(NC(=O)c2cc(NC(=O)c3c(C(F)(F)F)c(C(F)(F)C(F)(F)F)nn3CC(F)(F)F)ccc2Cl)CC1 [Example 64],logP,[2]; [14],3.60
"CCN(C(=O)c1c(C(F)(F)F)c(C(F)(F)C(F)(F)F)nn1C)c1ccc(Cl)c(C(=O)NC2CC2)c1 [Ik-136, reference compound]",inhibition at 20 g/ha,"[5]; MYZUPE, 6 dat",0%
same,inhibition at 20 g/ha,"[1]; Tetranychus urticae, foliar, 144 h, TETRUR, 20 g/ha, 6 dat",0%
same,inhibition at 0.8 ppm,"[6]; Ctenocephalides felis, po, 48 h, CTECFE, 0.8 ppm, 2 dat",30%
same,% Activity dat,[7]; 0.032 μg/animal,0%
same,inhibition at 20 ppm,[10]; 20 ppm,0%
same,inhibition at 0.8 ppm,[8]; 0.8 ppm,0%
same,inhibition at 20 g/ha,"[9]; 168 h, 20 g/ha, 7 dat",0%
"Cn1nc(C(F)(F)C(F)(F)F)c(C(F)(F)F)c1C(=O)Nc1ccc(F)c(C(=O)NC2CC2)c1 [Ik-155, reference compound]",inhibition at 100 g/ha,"[5]; MYZUPE, 100 g/ha, 6 dat",0%
same,inhibition at 100 g/ha,[1]; [13],0%
"Cn1nc(C(F)(F)C(F)(F)F)c(C(F)(F)F)c1C(=O)Nc1ccc(Br)c(C(=O)NC2CC2)c1 [Ik-175, reference compound]",inhibition at 100 g/ha,"[5]; MYZUPE, 100 g/ha, 6 dat",0%
same,inhibition at 4 ppm,[8],10%
same,inhibition at 500 g/ha,"[9]; 168 h, 7 dat",0%
"CCC1CC1NC(=O)c1cc(NC(=O)c2c(C(F)(F)F)c(C(F)(F)C(F)(F)F)nn2C)ccc1Cl (stereo not drawn) [Ik-286, reference compound]",inhibition at 20 g/ha,"[5]; MYZUPE, 6 dat",0%
same,inhibition at 4 ppm,"[6]; Ctenocephalides felis, po, 48 h, CTECFE, 4 ppm, 2 dat",0%
same,% Activity dat,[7]; 0.16 μg/animal,20%
same,inhibition at 100 ppm,[10]; 100 ppm,40%
same,inhibition at 100 g/ha,"[3]; Phaedon cochleariae, in Brassica rapa, foliar, 168 h, read-out: % Activity dat",0%
COC(=O)c1c(SC)c(C(F)(F)C(F)(F)F)nn1C [methyl 1-methyl-4-(methylsulphanyl)-3-(pentafluoroethyl)-1H-pyrazole-5-carboxylate],chromatographic logP,[2]; [11],3.51
COC(=O)c1c([N+](=O)[O-])c(C(F)(F)C(F)(F)F)nn1C [methyl 1-methyl-4-nitro-3-(pentafluoroethyl)-1H-pyrazole-5-carboxylate],chromatographic logP,[2]; [11],3.18
COC(=O)c1c(N)c(C(F)(F)C(F)(F)F)nn1C [methyl 4-amino-1-methyl-3-(pentafluoroethyl)-1H-pyrazole-5-carboxylate],chromatographic logP,[2]; [11],2.52
